Experimental data taken from PMC8087101, “Human parvovirus B19 interacts with globoside under acidic conditions as an essential step in endocytic trafficking” (PLoS Pathogens, 2021).

Target: T1, B19V (native virus capsid) (Human parvovirus B19 strain HV, UniProt Q9PZT0)
T1 construct: gene vp; icosahedral capsid of 60 VP1 and VP2 proteins; with Minor capsid protein VP1
Assay: hemagglutination inhibition of human red blood cells by soluble Gb4; binding to cells also by qPCR
Type: cell-based
Settings: pH 6.3, PiBS, room temperature; ceramide of natural source (Matreya), in DMSO; Gb3 as control lipid

For globoside [Gb4], the “hemagglutination inhibition, effective concentration” value was 0.2 to 0.4 µM.
